The results in this text go back to US20230117324A1, “OXAZINE MONOACYLGLYCEROL LIPASE (MAGL) INHIBITORS” (Hoffmann-La Roche Inc., priority 2018, published 2023).

SMILES strings stand for the structures.

The target of this assay is T1, MAGL (recombinant wild-type) (Homo sapiens, UniProt Q99685).
T1 sequence (Q99685 1-303): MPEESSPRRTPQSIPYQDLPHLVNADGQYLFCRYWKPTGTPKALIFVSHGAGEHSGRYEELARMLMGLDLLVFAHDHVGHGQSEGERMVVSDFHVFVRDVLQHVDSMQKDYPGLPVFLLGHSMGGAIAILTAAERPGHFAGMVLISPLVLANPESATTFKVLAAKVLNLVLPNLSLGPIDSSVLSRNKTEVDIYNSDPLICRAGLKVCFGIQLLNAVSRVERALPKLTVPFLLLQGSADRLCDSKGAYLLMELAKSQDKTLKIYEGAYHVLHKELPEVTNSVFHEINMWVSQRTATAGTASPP
In words: MAGL inhibition, 4-NPA assay (hydrolysis of 4-nitrophenylacetate, absorbance at 405 nm). It counts as biochemical. The note with it: 4-NPA assay (footnote [a]: values not marked [b]). How it is done:
Compounds were profiled for MAGL inhibitory activity by measuring the enzymatic activity of MAGL by following the hydrolysis of 4-nitrophenylacetate resulting in 4-nitrophenol, which absorbs at 405-412 nm (G. G. Muccioli, G. Labar, D. M. Lambert, Chem. Bio. Chem. 2008, 9, 2704-2710). This assay is hereinafter abbreviated “4-NPA assay”.
The assay was carried out in 384 well assay plates (black with clear bottom, non-binding surface treated, Corning Ref. 3655) in a total volume of 40 μL. Compound dilutions were made in 100% DMSO (VWR Chemicals 23500.297) in a polypropylene plate in 3-fold dilution steps to give a final concentration range in the assay from 25 μM to 1.7 nM. 1 μL compound dilutions (100% DMSO) were added to 19 μL MAGL (recombinant wild-type) in assay buffer (50 mM TRIS (GIBCO, 15567-027), 1 mM EDTA (Fluka, 03690-100 mL)). The plate was shaked for 1 min at 2000 rpm (Variomag Teleshake) and then incubated for 15 min at RT. To start the reaction, 20 μL 4-Nitrophenlyacetate (Sigma N-8130) in assay buffer with 6% EtOH was added. The final concentrations in the assay were 1 nM MAGL and 300 μM 4-Nitrophenylacetate. After shaking (1 min, 2000 rpm) and 5 min incubation at RT, the absorbance at 405 nm was measured for a first time (Molecular Devices, SpectraMax Paradigm). A second measurement was then done after incubation for 80 min at RT. From the two measurements, the slope was calculated by subtracting the first from the second measurement.

As to `O=C1CO[C@H]2CCN(C(=O)N3CCC(c4cn(C5CC5)c5ccc(Cl)cc45)CC3)C[C@H]2N1` (single isomer, unassigned) [Example 19, (+)-or (−)-cis-6-(4-(5-Chloro-1-cyclopropyl-1H-indol-3-yl)piperidine-1-carbonyl)hexahydro-2H-pyrido[4,3-b][1,4]oxazin-3(4H)-one], the half-maximal inhibitory concentration (IC50) (commonly the concentration at which inhibition is half-maximal) was found to be 1 nM.

Regarding `O=C1CO[C@H]2CCN(C(=O)N3CCC(C(c4ccc(F)cc4)c4ccc(F)cc4)CC3)C[C@H]2N1` (single isomer, unassigned) [Example 21, (+)-or (−)-cis-6-(4-(bis(4-Fluorophenyl)methyl)piperidine-1-carbonyl)hexahydro-2H-pyrido[4,3-b][1,4]oxazin-3(4H)-one], the IC50 was 1 nM.

On to `O=C1CO[C@H]2CCN(C(=O)N3CCC(c4cn(CC5COC5)c5ccc(Cl)cc45)CC3)C[C@H]2N1` (single isomer, unassigned) [Example 23, (+)-or (−)-cis-6-(4-(5-Chloro-1-(oxetan-3-ylmethyl)-1H-indol-3-yl)piperidine-1-carbonyl)hexahydro-2H-pyrido[4,3-b][1,4]oxazin-3(4H)-one], for which the 50% inhibitory concentration (IC50) amounted to 3 nM.

On to `CC(C)(C)[Si](C)(C)OCCn1cc(C2CCN(C(=O)N3CC[C@@H]4OCC(=O)N[C@@H]4C3)CC2)c2cc(Cl)ccc21` (single isomer, unassigned) [Example 24, (+)-or (−)-cis-6-(4-(1-(2-((tert-Butyldimethylsilyl)oxy)ethyl)-5-chloro-1H-indol-3-yl)piperidine-1-carbonyl)hexahydro-2H-pyrido[4,3-b][1,4]oxazin-3(4H)-one], for which the IC50 worked out at 0.7 nM.

With `O=C1CO[C@H]2CCN(C(=O)N3CCC(c4cn(CCO)c5ccc(Cl)cc45)CC3)C[C@H]2N1` (single isomer, unassigned) [Example 25, (+)- or (−)-cis-6-(4-(5-Chloro-1-(2-hydroxyethyl)-1H-indol-3-yl)piperidine-1-carbonyl)hexahydro-2H-pyrido[4,3-b][1,4]oxazin-3(4H)-one], the concentration for half-maximal inhibition (IC50) came out at 2 nM.

In the case of `O=C1CO[C@H]2CCN(C(=O)N3CCC([C@H](CCO)c4ccc(F)cc4)CC3)C[C@H]2N1` (single isomer, unassigned) [Example 32, (−)-(4aR,8aS)--6-(4-((S or R)-1-(4-Fluorophenyl)-3-hydroxypropyl)piperidine-1-carbonyl)hexahydro-2H-pyrido[4,3-b][1,4]oxazin-3(4H)-one], the IC50 was 203 nM.

In the case of `C[C@H](Oc1ccc(F)cc1Cl)C1CCN(C(=O)N2CC[C@@H]3OCC(=O)N[C@@H]3C2)CC1` (single isomer, unassigned) [Example 33, (+) or (−)-cis-6-(4-((S or R)-1-(2-Chloro-4-fluorophenoxy)ethyl)piperidine-1-carbonyl)hexahydro-2H-pyrido[4,3-b][1,4]oxazin-3(4H)-one], the IC50 came to 51 nM.

Regarding `C[C@@H](Oc1ccc(F)cc1Cl)C1CCN(C(=O)N2CC[C@@H]3OCC(=O)N[C@@H]3C2)CC1` (single isomer, unassigned) [Example 34, (+) or (−)-cis-6-(4-((R or S)-1-(2-Chloro-4-fluorophenoxy)ethyl)piperidine-1-carbonyl)hexahydro-2H-pyrido[4,3-b][1,4]oxazin-3(4H)-one], the IC50 was 1 nM.

`COc1cncc(C2CCN(C(=O)N3CC[C@@H]4OCC(=O)N[C@@H]4C3)CC2)c1` (single isomer, unassigned) [Example 35, (+) or (−)-cis-6-(4-(5-Methoxypyridin-3-yl)piperidine-1-carbonyl)hexahydro-2H-pyrido[4,3-b][1,4]oxazin-3(4H)-one]: the IC50 turned out to be 2400 nM.

In the case of `O=C1CO[C@@H]2CCN(C(=O)N3CCC(C(c4ccc(F)cc4)c4ccc(F)cc4)CC3)C[C@@H]2N1` (single isomer, unassigned) [Example 36, (+) or (−)-cis-6-(4-(Bis(4-fluorophenyl)methyl)piperidine-1-carbonyl)hexahydro-2H-pyrido[4,3-b][1,4]oxazin-3(4H)-one], the IC50 stood at 85 nM.
